Laboratory results from ChEMBL document CHEMBL1909046, “DrugMatrix in vitro pharmacology data”.

Legend:
Melanocortin receptor 4 = Melanocortin receptor 4 (Homo sapiens, UniProt P32245); type: cell membranes, Membrane; conditions: hek293; further: in other assays of this panel Not Active means under 50% inhibition at 10 µM
[1] = DRUGMATRIX: Serotonin (5-Hydroxytryptamine) 5-HT3 radioligand binding (ligand: [3H] GR-65630); type: cell membranes, Membrane; conditions: hek293; Not Active = under 50% inhibition at 10 µM
Cytochrome P450 2C19 = Cytochrome P450 2C19 (Homo sapiens, UniProt P33261); conditions: bti-tn-5b1-4; further: in other assays of this panel Not Active means under 50% inhibition at 10 µM
[2] = molecular target: Receptor tyrosine-protein kinase erbB-2 (Homo sapiens, UniProt P04626); assay: biochemical; type: cell-based, Insect cells; conditions: insect cells;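 further: inhibition of HER2 kinase enzyme activity, measured with Poly(Glu:Tyr) as the phosphorylation substrate; in other assays of this panel Not Active means under 50% inhibition at 10 µM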
[3] = molecular target: C-C chemokine receptor type 5 (Homo sapiens, UniProt P51681); type: cell membranes, Membrane; conditions: hek293; further: in other assays of this panel Not Active means under 50% inhibition at 10 µM
[4] = molecular target: T1, C-C chemokine receptor type 4 (Homo sapiens, UniProt P51679); type: cell membranes, Membrane; conditions: chem-1; further: in other assays of this panel Not Active means under 50% inhibition at 10 µM
T1 sequence (P51679 whole entry): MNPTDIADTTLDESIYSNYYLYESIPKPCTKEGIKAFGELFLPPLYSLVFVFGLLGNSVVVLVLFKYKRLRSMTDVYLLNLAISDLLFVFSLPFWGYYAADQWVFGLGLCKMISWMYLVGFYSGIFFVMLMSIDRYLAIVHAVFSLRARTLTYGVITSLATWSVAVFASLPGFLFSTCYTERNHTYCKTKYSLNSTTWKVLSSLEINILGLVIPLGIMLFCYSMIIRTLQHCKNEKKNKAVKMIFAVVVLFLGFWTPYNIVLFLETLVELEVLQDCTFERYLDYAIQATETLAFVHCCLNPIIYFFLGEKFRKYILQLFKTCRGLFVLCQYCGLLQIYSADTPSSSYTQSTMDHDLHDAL

[5] = molecular target: cGMP-specific 3',5'-cyclic phosphodiesterase (Homo sapiens, UniProt O76074); assay: DRUGMATRIX: Phosphodiesterase PDE5 enzyme inhibition (substrate: [3H]cGMP + cGMP); type: tissue-based, Platelet; conditions: platelet; Not Active = under 50% inhibition at 10 µM
Glycine receptor = Glycine receptor (Rattus norvegicus, UniProt P22771+P24524+P07727+P20781); type: cell membranes, Wistar, Spinal cord, Membrane; further: in other assays of this panel Not Active means under 50% inhibition at 10 µM

Chain of C-C chemokine receptor type 5 (P51681 whole entry): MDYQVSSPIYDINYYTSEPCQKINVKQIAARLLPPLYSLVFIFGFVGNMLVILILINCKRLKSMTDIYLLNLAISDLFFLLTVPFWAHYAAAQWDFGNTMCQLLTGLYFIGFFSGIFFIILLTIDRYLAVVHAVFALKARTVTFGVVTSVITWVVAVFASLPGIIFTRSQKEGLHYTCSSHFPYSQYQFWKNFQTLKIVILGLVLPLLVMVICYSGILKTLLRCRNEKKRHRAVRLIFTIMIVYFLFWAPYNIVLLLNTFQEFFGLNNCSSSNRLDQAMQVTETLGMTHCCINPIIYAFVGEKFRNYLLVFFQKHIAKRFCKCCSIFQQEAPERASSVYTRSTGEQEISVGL
Chain of Cytochrome P450 2C19 (P33261 whole entry): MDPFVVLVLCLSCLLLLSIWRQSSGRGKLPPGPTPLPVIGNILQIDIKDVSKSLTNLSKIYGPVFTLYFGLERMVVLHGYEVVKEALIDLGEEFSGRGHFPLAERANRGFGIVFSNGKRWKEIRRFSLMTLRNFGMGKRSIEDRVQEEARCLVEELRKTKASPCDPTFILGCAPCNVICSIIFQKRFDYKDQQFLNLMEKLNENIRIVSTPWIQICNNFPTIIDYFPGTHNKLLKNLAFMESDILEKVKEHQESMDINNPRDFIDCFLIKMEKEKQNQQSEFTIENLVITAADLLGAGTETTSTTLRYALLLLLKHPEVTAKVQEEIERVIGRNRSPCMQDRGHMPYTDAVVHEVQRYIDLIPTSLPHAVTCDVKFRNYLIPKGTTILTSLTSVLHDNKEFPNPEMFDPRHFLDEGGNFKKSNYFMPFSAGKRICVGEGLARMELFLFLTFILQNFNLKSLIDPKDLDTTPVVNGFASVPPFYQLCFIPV
Chain of Melanocortin receptor 4 (P32245 whole entry): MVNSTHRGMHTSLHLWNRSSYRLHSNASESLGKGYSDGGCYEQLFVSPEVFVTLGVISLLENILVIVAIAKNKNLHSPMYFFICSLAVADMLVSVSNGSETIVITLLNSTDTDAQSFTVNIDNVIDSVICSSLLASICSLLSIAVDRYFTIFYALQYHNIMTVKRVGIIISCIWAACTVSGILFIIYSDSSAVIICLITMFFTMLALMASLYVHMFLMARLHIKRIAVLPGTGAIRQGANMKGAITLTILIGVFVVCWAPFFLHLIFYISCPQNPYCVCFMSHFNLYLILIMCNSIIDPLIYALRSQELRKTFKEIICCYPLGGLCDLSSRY

CCCNC(C)C(=O)Nc1ccccc1C (stereo unspecified) [PRILOCAINE]
Not Active: IC50 (Melanocortin receptor 4) | IC50 [1] | Ki [1] | IC50 (Cytochrome P450 2C19) | Ki (Cytochrome P450 2C19) | IC50 [2] | IC50 [3] | IC50 [4] | IC50 [5] | IC50 (Glycine receptor)

CCN(CC)CCCC(C)Nc1c2ccc(Cl)cc2nc2ccc(OC)cc12 (stereo unspecified) [QUINACRINE]
Not Active: IC50 (Melanocortin receptor 4) | IC50 [1] | Ki [1] | IC50 (Cytochrome P450 2C19) | Ki (Cytochrome P450 2C19) | IC50 [2] | IC50 [3] | IC50 [4] | IC50 [5] | IC50 (Glycine receptor)

CC[C@]1(O)C[C@@H]2CN(CCc3c([nH]c4ccccc34)[C@@](C(=O)OC)(c3cc4c(cc3OC)N(C)[C@H]3[C@@](O)(C(N)=O)[C@H](O)[C@]5(CC)C=CCN6CC[C@]43[C@@H]65)C2)C1 [VINDESINE]
Not Active: IC50 (Melanocortin receptor 4) | IC50 [1] | Ki [1] | IC50 (Cytochrome P450 2C19) | Ki (Cytochrome P450 2C19) | IC50 [2] | IC50 [3] | IC50 [4] | IC50 [5] | IC50 (Glycine receptor)

CCN(C(C)=O)c1cccc(-c2ccnc3c(C#N)cnn23)c1 [ZALEPLON]
Not Active: IC50 (Melanocortin receptor 4) | IC50 [1] | Ki [1] | IC50 (Cytochrome P450 2C19) | Ki (Cytochrome P450 2C19) | IC50 [2] | IC50 [3] | IC50 [4] | IC50 [5] | IC50 (Glycine receptor)

COBALTOUS CHLORIDE
Not Active: IC50 (Melanocortin receptor 4) | Ki (Melanocortin receptor 4) | IC50 [1] | Ki [1] | IC50 (Cytochrome P450 2C19) | Ki (Cytochrome P450 2C19) | IC50 [2] | Ki [2] | IC50 [3] | Ki [3] | IC50 [4] | Ki [4] | IC50 [5] | Ki [5] | IC50 (Glycine receptor) | Ki (Glycine receptor)
